# Key:
# pig brain = experiment: Pulsed ^17O2 inhalation (2 breaths, 40% enrichment) with T1ρ-weighted MRI of pig brain at 1.5 Tesla; assay type: in vivo; conditions: 70 Kg pig; ventricle signal normalized to whole brain
# Method: To further test the apparatus 100, a 70 Kg Yorkshire pig was anesthetized with intramuscular doses of ketamine (25 mg/Kg) and xylazine (2.5 mg/Kg) and orally intubated. General anesthesia was maintained throughout the experiment with intravenous doses of ketamine (1-2 mg/Kg/hr) and diazepam (0.5-1 mg/Kg/hr). Once placed in the MRI scanner 114 in the prone position, the endotracheal tube was connected to the circuit and mechanical ventilation commenced in volume control mode with a tidal volume of 16.2 ml/Kg, a respiratory rate of 6 breaths/min, I:E ratio of 1:1 and zero end-expiratory pressure. After collecting baseline images on room air, the source valve was switched to 100% O2. After 5 minutes to allow for denitrogenation, further baseline images were obtained while breathing 100% oxygen. […]
# Overlay of the signal decreases, ranging from 0% decrease to 1% decrease, an average of 40-50 seconds after the start of the ^17O2 breaths, as determined by indirect T1ρ imaging with a spin-lock sequence. […]
# The time course of arterial ^17O2 concentrations, estimated from a model of alveolar gas dilution (appendix), is shown in FIG. 5a. […] Inspiratory tidal volume is measured from the calibrated output of the inhalation pump 102. […]
# [1] = measurements made in tissue phantoms; cited from earlier work
# [2] = T1ρ relaxivity in H2^17O doped phosphate buffered saline phantoms; assay type: physicochemical; conditions: spin lock amplitude 100 Hz, 1.5T
# Method: The ability of the sequence to detect changes in H2^17O concentration was measured by imaging six 15 mL conical tubes filled with 1× Phosphate Buffered Saline doped with H2^17O (Isotec, Miamisberg, Ohio) in steps of 5 mM from 20 mM (natural abundance) to 45 mM. These tubes were sealed and placed into a 9 cm jar filled with water. A receive only loop coil was placed around the jar and used in combination with the body transmit coil. Cross-sectional images of the tubes were acquired with a spin lock amplitude of 100 Hz and spin lock times of 200, 400, 600, 800, and 1000 msec. Imaging parameters are: FoV 90 mm^2, ST 5 mm, TR/TE 10.4/5.2 ms, Matrix 128^2, BW 130 Hz/Px, α=180°.
# The concentrations of the phantoms were determined experimentally according to the following equation:
# [formula] Where fn is the natural abundance [H2^17O], S is the signal from a pixel or ROI with natural abundance (NA) [H2^17O] or [H2^17O] added (^17O) taken as a proton density weighted image to account for coil sensitivity or when T1ρ pre-encoded (T1ρ). R1ρ is the relaxivity due to H2^17O and TSL is the spin lock time.
# FIG. 12 provides cross-sectional images of 15 mL conical tubes filled with phosphate buffered saline and doped with increasing amounts of H2^17O to concentrations from 20 mM (natural abundance) to 45 mM (25 mM added).
# [3] = Serial arterial blood sampling and ^17O NMR spectroscopy of serum during and after 1 minute of ^17O2 delivery; assay type: in vivo, pig
# Method: During imaging, arterial blood sampling was performed on several occasions. An optimized protocol was developed and repeated. An arterial catheter was placed under ultrasound guidance into the femoral artery in the large animal fluoroscopy suite. Approximately 2 cc of blood was collected over 3-5 seconds into each Vacutainer Serum Separator Tube (Becton-Dickinson, #367983) at a rate of one sample each 10 seconds for the first 12 samples and then 60 seconds each for six more samples. Four control samples were taken before the experiment began. The tubes used are designed to reseal immediately after needle puncture. Their ability to remain sealed was tested by taking several tubes at random, creating a strong negative pressure inside the tube with a vacuum pump attached to a needle, and then repeated puncture with larger diameter needles than used for blood sampling. The pressure inside the tubes was checked after over a dozen punctures and had changed less than 10%.
# A concern is that water ^17O will exchange with ambient CO2 through bicarbonate ion, a very fast reaction when catalyzed by carbonic anhydrase as in whole blood (Mills G A, Urey H C. The Kinetics of Isotopic Exchange between Carbon Dioxide, Bicarbonate Ion, Carbonate Ion and Water. J Am Chem Soc 1940; 62 (5):1019-1026). To minimize this effect, serum was separated by centrifugation soon after the experiment. Tubes were then frozen at −20 C and kept sealed until the time of analysis. Centrifugation places a gel between the serum and red blood cells in these tubes to fully separate the two. This procedure serves to protect the samples in two ways. […]
# An 11.7T Bruker DMX400 Avance Spectrometer equipped with a 1H/X nucleus decoupler probe tuned to ^17O was used to measure 1 mL of each sample loaded into 5 mm ID NMR tubes just before analysis. Spectra were recorded without lock at room temp. […]
# Blood sampling was performed during scanning on two separate occasions. […] Serum concentration of H2^17O was calculated by integrating the H2^17O peak obtained by ^17O spectroscopy of the blood samples taken at the given time points. […]
R1ρ(100 Hz) [2] [mM⁻¹ ms⁻¹],"delay between the start of ^17O2 delivery and the start of wash-in in arterial blood ([3]; 19.8 kg pig, second experiment) [s]","delay between the start of ^17O2 delivery and the start of wash-in in arterial blood ([3]; 40.8 kg pig, 80% N2/20% O2 (70% ^17O enriched) for 60 seconds, femoral artery serum)","time when recirculation begins ([3]; arterial blood sampling and analysis of mH2^17O content, pigs) [s]",SMILES,delay of decrease in scaled signal in the cerebral ventricle after the initial inhalation of ^17O2 (pig brain),"R1ρ, relaxation enhancement of tissue due to H2^17O [1]"
,,,,O=O [^17O2],about 110 seconds,
1.37e-05,~70,about 90 seconds,60 to 80,[17OH2] [H2^17O],,5.91*10^−6 (μmol/g water)^−1 ms^−1

# — patent US8554305B2, “Method and apparatus for providing pulses inhalation of 17O2 for magnetic resonance imaging of cerebral metabolism” (The Trustees of the University of Pennsylvania, priority 2007, dated 2013)
